From patent US10201564B2, “Methods of using inhaled nitric oxide gas for treatment of acute respiratory distress syndrome in children” (Mallinckrodt Hospital Products IP Limited, priority 2014, dated 2019)

Tested on: pediatric subjects with acute hypoxemic respiratory failure (AHRF)
Experiment: Pediatric AHRF study: adverse events, serious adverse events, deaths, discontinuations
Format: in vivo, human
Method: This was a prospective, multicenter, randomized, double-blind, placebo-controlled, parallel-group study of the safety and efficacy of inhaled nitric oxide in pediatric subjects with acute hypoxemic respiratory failure (AHRF). The subjects were randomized to receive either 5 ppm inhaled nitric oxide or placebo.
Nitric Oxide for inhalation at 5 ppm was administered continuously into the inspiratory limb of the ventilator circuit in mechanically ventilated subjects using a blinded version of the INOvent® delivery system.
Subjects received 100% treatment gas (nitric oxide 5 ppm or placebo [nitrogen gas]) until Day 28 or extubation, whichever occurred first.
This was a prospective, multicenter, randomized, double-blind, placebo-controlled, Phase III study to assess the effects of nitric oxide for inhalation in the treatment of acute hypoxic respiratory failure (AHRF) in pediatric subjects. The study population consisted of male and female pediatric subjects, aged 44 weeks postconceptional age to 16 years age, who were admitted to the pediatric intensive care unit (PICU) and who required intubation because of AHRF. The inclusion/exclusion criteria are described in the Patients section below.
Standardized ventilatory management and weaning procedures were used. Ventilatory management was used based on an “open lung approach” using positive end-expiratory pressure (PEEP) to increase lung volume and limiting tidal volumes to reduce plateau pressures. Subjects received nitric oxide for inhalation at 5 ppm or placebo (100% Grade 5 nitrogen gas) into the inspiratory limb of the ventilator circuit using a blinded version of the INOvent® delivery system. The subjects were treated until Day 28 or extubation, whichever occurred first. Subjects were assessed daily using a spontaneous breathing trial, according to the institution's standard of care. Arterial blood gases (ABG), ventilator settings, methemoglobin, oxygenation index, systolic blood pressure, diastolic blood pressure, Pediatric Risk of Mortality (PRISM) III score, and subject positioning (prone or supine) were performed/recorded at specified times during the study. Selected centers also performed plasma cytokine assays, bronchoalveolar lavage fluid (BALF) assays, and a 6-month follow-up assessment.

[1] = 5 ppm, relationship to study treatment Suspected

## [N]=O [Nitric Oxide, nitric oxide]
[1]
  Serious adverse event: Hypotension, subjects n (%): 0 (0.0)
  Serious adverse event: Hypoxia, subjects n (%): 0 (0.0)
  Serious adverse event: Intracranial pressure increased, subjects n (%): 0 (0.0)
  Serious adverse event: Multi-organ failure, subjects n (%): 0 (0.0)
  Serious adverse event: Pancreatitis, subjects n (%): 0 (0.0)
  Serious adverse event: Pneumonia, aspergillus, subjects n (%): 0 (0.0)
  Serious adverse event: Pulmonary hemorrhage, subjects n (%): 0 (0.0)
  Serious adverse event: Renal failure, acute, subjects n (%): 0 (0.0)
  Serious adverse event: Renal failure, subjects n (%): 0 (0.0)
  Serious adverse event: Renal impairment, subjects n (%): 0 (0.0)
  Serious adverse event: Respiratory failure, subjects n (%): 0 (0.0)
  Serious adverse event: Sepsis, subjects n (%): 0 (0.0)
  Serious adverse event: Subdural hematoma, subjects n (%): 0 (0.0)
  Serious adverse event: Unevaluable event, subjects n (%): 0 (0.0)
5 ppm, subjects with AE
  Abdominal distension: 0 (0.0) n (%)
  Acidosis: 1 (3.8%) n (%)
  Agitation: 2 (7.7%) n (%)
  Anemia: 1 (3.8%) n (%)
  Apnea: 1 (3.8%) n (%)
  Arrhythmia: 1 (3.8%) n (%)
  Ascites: 1 (3.8%) n (%)
  Bacteremia: 2 (7.7%) n (%)
  Bacteria, blood: 1 (3.8%) n (%)
  Bacteria, sputum: 0 (0.0) n (%)
  Bladder distension: 0 (0.0) n (%)
  Brain edema: 0 (0.0) n (%)
  Bronchoalveolar lavage: 1 (3.8%) n (%)
  C-reactive protein increased: 0 (0.0) n (%)
  Cardiac arrest: 0 (0.0) n (%)
  Cerebral artery occlusion: 0 (0.0) n (%)
  Chest tube insertion: 1 (3.8%) n (%)
  Deep vein thrombosis: 2 (7.7%) n (%)
  Device failure: 0 (0.0) n (%)
  Diabetic ketoacidosis: 0 (0.0) n (%)
  Diarrhea: 0 (0.0) n (%)
  Disseminated intravascular coagulation: 0 (0.0) n (%)
  Empyema: 0 (0.0) n (%)
  Feeding disorder: 0 (0.0) n (%)
  Fungemia: 1 (3.8%) n (%)
  Fungus culture positive: 0 (0.0) n (%)
  Fungus urine test positive: 0 (0.0) n (%)
  Gangrene: 1 (3.8%) n (%)
  Gastrointestinal hemorrhage: 0 (0.0) n (%)
  Generalized edema: 0 (0.0) n (%)
  Hematuria: 0 (0.0) n (%)
  Hemoglobinemia: 1 (3.8%) n (%)
  Hemolytic anemia: 0 (0.0) n (%)
  Hemopneumothorax: 0 (0.0) n (%)
  Hemorrhage: 0 (0.0) n (%)
  Hemothorax: 0 (0.0) n (%)
  Hepatic failure: 0 (0.0) n (%)
  Hepatosplenomegaly: 1 (3.8%) n (%)
  Hyperammonemia: 0 (0.0) n (%)
  Hypercalcemia: 1 (3.8%) n (%)
  Hypercapnia: 0 (0.0) n (%)
  Hyperchloremia: 1 (3.8%) n (%)
  Hyperglycemia: 1 (3.8%) n (%)
  Hyperkalemia: 1 (3.8%) n (%)
  Hyperlipidemia: 0 (0.0) n (%)
  Hypernatremia: 2 (7.7%) n (%)
  Hypertension: 0 (0.0) n (%)
  Hypocalcemia: 1 (3.8%) n (%)
  Hypochloremia: 0 (0.0) n (%)
  Hypothermia: 0 (0.0) n (%)
  Hypoxia: 0 (0.0) n (%)
  Intracranial pressure increased: 0 (0.0) n (%)
  Labile blood pressure: 0 (0.0) n (%)
  Leukocytosis: 1 (3.8%) n (%)
  Lung infection, pseudomonal: 0 (0.0) n (%)
  Medical device removal: 0 (0.0) n (%)
  Metabolic acidosis: 0 (0.0) n (%)
  Metabolic alkalosis: 1 (3.8%) n (%)
  Multi-organ failure: 0 (0.0) n (%)
  Ocular icterus: 0 (0.0) n (%)
  Oliguria: 0 (0.0) n (%)
  Oxygen saturation decreased: 2 (7.7%) n (%)
  Pancreatitis: 0 (0.0) n (%)
  Pleural effusion: 0 (0.0) n (%)
  Pneumomediastinum: 0 (0.0) n (%)
  Pneumonia: 1 (3.8%) n (%)
  Pneumonia, aspergillus: 0 (0.0) n (%)
  Pneumonia, staphylococcal: 1 (3.8%) n (%)
  Pruritus: 0 (0.0) n (%)
  Pseudomonal sepsis: 1 (3.8%) n (%)
  Pulmonary hemorrhage: 0 (0.0) n (%)
  Pulmonary hypertension: 0 (0.0) n (%)
  Pyrexia: 0 (0.0) n (%)
  Renal failure: 1 (3.8%) n (%)
  Renal failure, acute: 0 (0.0) n (%)
  Renal impairment: 0 (0.0) n (%)
  Respiratory acidosis: 0 (0.0) n (%)
  Sepsis: 0 (0.0) n (%)
  Skin injury: 0 (0.0) n (%)
  Subdural hematoma: 0 (0.0) n (%)
  Thrombocythemia: 1 (3.8%) n (%)
  Thrombocytopenia: 0 (0.0) n (%)
  Tracheitis: 2 (7.7%) n (%)
  Unevaluable event: 2 (7.7%) n (%)
  Urinary tract infection: 1 (3.8%) n (%)
  Urinary tract infection, fungal: 1 (3.8%) n (%)
  Urine output decreased: 1 (3.8%) n (%)
  White blood cell count increased: 0 (0.0) n (%)
Died after the treatment period
  AE in which death was the outcome, subject 2001A: No AE listed in which death was the outcome
Donor two
  AE in which death was the outcome, subject 2007: No AE listed in which death was the outcome
In words
  relationship of deaths, serious AEs, severe AEs and AEs resulting in discontinuation to study treatment: No death, serious AE, severe AE, or AE resulting in treatment discontinuation was suspected to be related to study treatment
Subject 3003 (person one), nitric oxide group
  SAE (identification of subjects with serious adverse events): Bradycardia, hypotension
Subject 3003 (person one), nitric oxide group, DC = discontinued treatment
  Action/Reported Outcome of SAE: DC/death
